A short description of series [1]: Evaluation Example 3: remaining drug amount in tape preparation after storage. Type of series: physicochemical. The conditions noted are these: formulated into the (meth)acrylic copolymer used in the present invention; Table 3. The protocol:
The tape preparation prepared in Example 4 and Comparative Examples 8 and 9 were cut into 7×10 cm squares and were placed in a polyethylene-aluminum laminate bag and all four sides of the bag were sealed.
The tape agent was stored at 40° C. and 75% R.H. for 3 months and the remaining drug amount in the tape preparation was measured in the same manner as in Evaluation Example 1.
From the residual amount of drug measured, the drug remaining rate was calculated by the following formula: [formula]

The conditions of series [2]: keratin soluble enzyme, N-acylsarcosine, aliphatic monoalkylolamide, or organic acid added; cited from earlier work.
Series [3] can be described thus: Evaluation Example 1: drug absorption to skin from residual drug amount, HPLC. The conditions noted are these: formulated into the (meth)acrylic copolymer used in the present invention; Table 1.
Procedure: The tape preparation or poultice preparation was peeled off 24 hours after application, and the drug remaining on the applied site was wiped off with defatted cotton containing 1 ml of distilled water. The tape preparation or poultice preparation peeled off was stirred in 200 ml of hot ethanol for 2 hours to extract the drug, cooled to room temperature, and then brought to a constant volume of 200 ml with ethanol. To 5 ml of the solution was added 5 ml of an internal standard substance (300 μg/ml of an aqueous flulubiprofen solution was used), and after bringing to a constant volume of 50 ml with ethanol, the residual drug amount was measured by high performance liquid chromatography (hereinafter abbreviated as HPLC). The defatted cotton was stirred in 200 ml of distilled water for 2 hours to extract the drug, and to 5 ml of the solution was added 5 ml of the internal standard substance. After the mixture was brought to a constant volume of 50 ml with distilled water, the remaining drug amount was measured by HPLC.
The ointment was wiped off with defatted cotton containing ethanol (10 ml of ethanol content) 24 hours after application. […] To 5 ml of the solution was added 5 ml of the above internal standard substance, and after bringing to 50 ml with ethanol, the remaining drug amount was measured by HPLC.
The conditions of series [4]: adhesives containing polar monomers; cited from earlier work.

For `COc1ccc2c(c1)c(CC(=O)O)c(C)n2C(=O)c1ccc(Cl)cc1` [indomethacin], the “chemical stability in the preparations (in words)” value in series [1] was “poor”. In series [2], the “enhancement of the absorption by additive substance” value is 2 -fold. Also, the “percutaneous absorption of the drug (in words)” value in series [3] is “poor”.

Consider `O=C(O)Cc1ccccc1Nc1c(Cl)cccc1Cl` [diclofenac sodium], for which, in series [1], the “chemical stability in the preparations (in words)” value was “poor”. In addition, the “percutaneous absorption of the drug (in words)” value in series [3] is on record as “poor”.

For the compound `CC(C(=O)O)c1cccc(Oc2ccccc2)c1` (stereo not shown) [fenoprofen], the “enhancement of the absorption by additive substance” value in series [2] was 2 -fold.

For `CC(C(=O)O)c1cccc(C(=O)c2ccccc2)c1` (stereo not shown) [ketoprofen, 3-Benzoylhydratropic acid], in series [4], the “amount formulated at which crystals are not precipitated” value is “about 40 % by weight”.

These data come from US4938964A, “External dermatological composition” (Showa Denko Kabushiki Kaisha, priority 1987, dated 1990).
